In general, ED50 refers to the dose that gives a 50% effect, or the effect in half of the subjects.

Structures can show the parent of a compound that is named as a salt.

Here are results for 2 molecules from patent publication US5866611A, “Therapeutic amines” (Zeneca Limited, priority 1993, dated 1999).

The test system of one experiment is Squalene synthase. As to the kind of experiment: Inhibition of Squalene synthase. As to conditions: rat liver microsomal protein, 15 min, 37° C. It counts as biochemical. As to the method: (a) Inhibition of Squalene synthase
In this test, the ability of a compound to prevent the formation of squalene from a radioactive substrate (tritiated farnesyl pyrophosphate) is assessed.
The test compound is incubated at a concentration of 25 micromolar in 200 μl of a buffered solution containing potassium phosphate (50 mM), MgCl2 (4.95 mM), KF (9.9 mM), NADPH (0.9 mM) and rat liver microsomal protein (20 μg). Rat liver microsomes are prepared by the method described in published European Patent Application No. 324,421 and stored in liquid nitrogen prior to assay. Assay vials are kept at 37° C. throughout the incubation.
The reaction is started with the addition of the substrate (1-[^3 H]-farnesyl pyrophosphate), final concentration […], and stopped after 15 minutes reaction time with the addition of 50 μl of 4% KOH. The reaction products are separated from unreacted substrate after application to a C-18 octadecyl 1ccBond column (Analytichem Int product No. 617101). An aqueous fraction is eluted with 250 μl of 0.1M KOH. Squalene is then eluted with 1.0 ml 10% ethylacetate in hexane and radioactivity determined. The difference in radioactivity in the presence and absence of the test compound is used to determine the level of inhibition. […] The IC50 can then be determined from a plot of percentage inhibition against concentration of test compound.
(Liver microsomes are vesicles of endoplasmic reticulum, rich in cytochrome P450 enzymes.)

In experiment [1] the test system is de novo hepatic cholesterol synthesis. As to the kind of experiment: Acute rat cholesterol synthesis assay. The note with it: acute in vivo, female rats, 14C-acetate ip, plasma cholesterol specific radioactivity, route for this compound not given. As to the method: (b) Acute rat cholesterol synthesis assay.
This is an acute in vivo test in the rat to measure de novo hepatic cholesterol synthesis from exogenously administered ^14 C-acetate.
Female rats (35-55 g) are housed in reverse lighting conditions (red light from 0200 h-1400 h) for a period of about 2 weeks prior to test. Animals are allowed free access to chow and drinking water throughout this period. At test, animals should weigh 125-150 g.
Test compounds may be administered by oral gavage, dissolved or suspended in 0.5% polysorbate, or by ip or iv dosing. Control animals receive vehicle alone. After 1 hour the rats are injected ip with 25 μCi [2-^14 C]-acetate (NEN DUPONT. specific activity, 45-60mCi/mmol NEC-085H, or AMERSHAN specific activity, 50-60 mCi/mmol CFA 14) in a volume of 0.25 ml saline (100 μCi/ml). After a further hour, rats are terminally anaesthetised with halothane and a blood sample obtained from the abdominal vena cava.
1ml of plasma is lyophilised and then saponified in 2ml ethanolic KOH (1 part 33% KOH, 9 parts ethanol) at […] for 2 hours. After addition of an equal quantity of water, non-saponifiable lipids are extracted with two 5ml volumes of hexane. The hexane extracts are evaporated to dryness and the residues dissolved in ethanol to determine cholesterol specific radioactivity. ED50 values can be determined in the standard way.

As for `CCCCOc1ccc(OCCCNC(C)C)c(CCC)c1` [Example 2, N-isopropyl-3-(4-butoxy-2-propylphenoxy)propylamine], the “inhibition of squalene synthase” value in the experiment with Squalene synthase (at a concentration of 25 μM) is reported as “about 74%”.

For the molecule `CCCc1cc(NC(C)=O)ccc1OCCCNC(C)C` [Example 95, 3-n-propyl-4-(3-[N-isopropylamino]propoxy)-acetanilide hydrochloride], the “inhibition of squalene synthase” value in the experiment with Squalene synthase (at 2.5 μM) is on record as “about 86%”. Besides, the ED50 in experiment [1] amounted to 27 mg/kg.
